Active and inactive are the calls of the source. The rule behind the calls is not given here.
Legend:
[1] = biological target: T1, Hepatocyte growth factor receptor (Homo sapiens, UniProt P08581); test: Inhibition of TPR-Met assessed as autophosphorylation
Target sequence in this assay (P08581 25-1390 limits assumed): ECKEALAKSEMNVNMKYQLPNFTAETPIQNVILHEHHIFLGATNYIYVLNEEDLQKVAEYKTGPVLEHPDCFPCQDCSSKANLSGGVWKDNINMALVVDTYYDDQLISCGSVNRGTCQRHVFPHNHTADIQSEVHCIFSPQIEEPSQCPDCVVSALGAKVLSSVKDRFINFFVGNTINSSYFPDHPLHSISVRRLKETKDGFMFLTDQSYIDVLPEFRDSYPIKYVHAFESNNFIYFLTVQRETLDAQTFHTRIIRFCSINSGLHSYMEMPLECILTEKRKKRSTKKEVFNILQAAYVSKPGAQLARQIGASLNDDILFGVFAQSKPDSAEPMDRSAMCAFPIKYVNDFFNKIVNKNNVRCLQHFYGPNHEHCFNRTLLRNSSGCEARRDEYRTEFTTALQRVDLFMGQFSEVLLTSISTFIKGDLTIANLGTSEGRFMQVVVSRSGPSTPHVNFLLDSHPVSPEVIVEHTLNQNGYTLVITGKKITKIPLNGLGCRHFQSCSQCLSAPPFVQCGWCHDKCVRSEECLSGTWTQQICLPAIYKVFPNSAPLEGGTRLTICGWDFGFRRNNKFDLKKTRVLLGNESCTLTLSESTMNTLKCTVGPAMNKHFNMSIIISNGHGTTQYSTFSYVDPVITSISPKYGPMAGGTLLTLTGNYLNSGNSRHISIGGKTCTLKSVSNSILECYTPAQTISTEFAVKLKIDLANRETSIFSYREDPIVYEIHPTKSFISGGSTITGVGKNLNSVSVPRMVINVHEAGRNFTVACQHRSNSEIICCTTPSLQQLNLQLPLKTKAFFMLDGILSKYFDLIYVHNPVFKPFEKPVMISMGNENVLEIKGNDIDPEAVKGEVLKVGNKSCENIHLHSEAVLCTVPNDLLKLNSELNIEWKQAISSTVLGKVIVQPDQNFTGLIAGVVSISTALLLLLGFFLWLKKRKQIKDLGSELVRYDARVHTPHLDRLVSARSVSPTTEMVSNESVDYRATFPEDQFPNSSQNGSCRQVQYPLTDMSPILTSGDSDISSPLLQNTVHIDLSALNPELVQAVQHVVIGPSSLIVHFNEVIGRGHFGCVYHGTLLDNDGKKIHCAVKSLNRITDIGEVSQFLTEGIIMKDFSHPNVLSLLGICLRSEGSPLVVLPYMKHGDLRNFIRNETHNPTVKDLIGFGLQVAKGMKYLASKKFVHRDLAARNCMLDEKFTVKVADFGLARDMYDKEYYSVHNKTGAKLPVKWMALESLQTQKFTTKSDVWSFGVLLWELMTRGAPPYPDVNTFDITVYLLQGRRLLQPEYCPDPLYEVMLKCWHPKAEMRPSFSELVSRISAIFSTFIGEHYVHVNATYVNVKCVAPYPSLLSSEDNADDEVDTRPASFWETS

[2] = biological target: T1, Hepatocyte growth factor receptor; test: Inhibition of GST-tagged c-Met expressed in Sf9 cells
Target sequence in this assay (P08581 whole entry): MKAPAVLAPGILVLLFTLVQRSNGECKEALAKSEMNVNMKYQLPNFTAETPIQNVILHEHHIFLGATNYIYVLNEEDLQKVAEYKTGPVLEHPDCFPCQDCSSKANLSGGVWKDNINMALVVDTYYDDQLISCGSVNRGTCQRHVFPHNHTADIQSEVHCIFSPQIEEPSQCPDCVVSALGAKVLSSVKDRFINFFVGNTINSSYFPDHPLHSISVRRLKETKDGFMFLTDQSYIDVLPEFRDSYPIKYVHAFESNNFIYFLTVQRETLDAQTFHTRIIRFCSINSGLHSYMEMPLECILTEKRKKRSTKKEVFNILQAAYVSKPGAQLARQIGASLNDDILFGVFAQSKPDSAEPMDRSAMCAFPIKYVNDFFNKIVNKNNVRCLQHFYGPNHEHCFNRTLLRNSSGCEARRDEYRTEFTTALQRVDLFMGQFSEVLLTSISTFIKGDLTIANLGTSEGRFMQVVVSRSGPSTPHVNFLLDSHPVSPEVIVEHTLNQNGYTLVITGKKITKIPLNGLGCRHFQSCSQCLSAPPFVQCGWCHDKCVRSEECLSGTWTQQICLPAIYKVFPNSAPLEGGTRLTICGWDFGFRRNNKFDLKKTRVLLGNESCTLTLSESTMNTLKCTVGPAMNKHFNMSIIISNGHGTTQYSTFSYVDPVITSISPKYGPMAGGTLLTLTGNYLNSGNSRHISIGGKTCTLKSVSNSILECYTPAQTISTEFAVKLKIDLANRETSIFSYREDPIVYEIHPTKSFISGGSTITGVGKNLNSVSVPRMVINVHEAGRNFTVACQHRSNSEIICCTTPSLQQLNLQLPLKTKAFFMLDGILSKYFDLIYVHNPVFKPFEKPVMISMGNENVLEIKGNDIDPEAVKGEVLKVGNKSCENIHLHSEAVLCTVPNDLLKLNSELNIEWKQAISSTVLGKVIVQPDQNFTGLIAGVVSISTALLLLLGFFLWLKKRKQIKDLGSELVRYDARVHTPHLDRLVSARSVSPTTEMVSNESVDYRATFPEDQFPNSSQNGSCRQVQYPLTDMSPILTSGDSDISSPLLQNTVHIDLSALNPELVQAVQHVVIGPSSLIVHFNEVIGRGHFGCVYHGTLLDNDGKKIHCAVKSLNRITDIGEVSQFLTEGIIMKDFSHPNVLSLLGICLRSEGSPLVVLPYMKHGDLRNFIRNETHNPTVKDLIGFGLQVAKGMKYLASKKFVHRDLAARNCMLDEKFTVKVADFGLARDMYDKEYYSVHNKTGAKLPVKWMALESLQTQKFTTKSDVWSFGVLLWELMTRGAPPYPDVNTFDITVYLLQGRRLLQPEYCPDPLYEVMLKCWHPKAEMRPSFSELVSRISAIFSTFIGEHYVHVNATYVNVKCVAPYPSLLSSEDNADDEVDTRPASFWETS

[3] = Inhibition of GST-tagged VEGFR expressed in Sf9 cells
[4] = biological target: Fibroblast growth factor receptor 1 (Homo sapiens) (UniProt P11362); test: Inhibition of FGFR1 at 100 uM
[5] = biological target: T1, Hepatocyte growth factor receptor; test: Inhibition of Met at 100 uM
Target sequence in this assay (P08581 whole entry): as above

[6] = system: HUVEC; test: Antiangiogenic activity against HUVEC cell assessed as inhibition of VEGF-dependent tubule formation; format: functional, Homo sapiens
[7] = biological target: Tyrosine-protein kinase JAK2 (Homo sapiens) (UniProt O60674); test: Inhibition of JAK2 at 100 uM
[8] = biological target: RAC-alpha serine/threonine-protein kinase (Homo sapiens) (UniProt P31749); test: Inhibition of PKBalpha at 100 uM
[9] = biological target: Tyrosine-protein kinase JAK3 (Homo sapiens) (UniProt P52333); test: Inhibition of JAK3 at 100 uM
[10] = biological target: Proto-oncogene tyrosine-protein kinase Src (Homo sapiens) (UniProt P12931); test: Inhibition of c-SRC at 100 uM
[11] = biological target: Aurora kinase A (Homo sapiens) (UniProt O14965); test: Inhibition of Aurora A at 100 uM
[12] = biological target: Inhibitor of nuclear factor kappa-B kinase subunit beta (Homo sapiens) (UniProt O14920); test: Inhibition of IKK-beta at 100 uM
[13] = system: HUVEC; test: Inhibition of VEGF-stimulated proliferation of HUVEC cells; format: functional, cell-based; details: Homo sapiens
[14] = Half life in rat; format: ADME, organism-based; details: in vivo
[15] = biological target: High affinity nerve growth factor receptor (Homo sapiens) (UniProt P04629); test: Inhibition of TrkA at 100 uM
[16] = Inhibition of VEGF-induced ERK phosphorylation in HUVEC; format: cell-based; details: Homo sapiens
[17] = biological target: Proto-oncogene tyrosine-protein kinase receptor Ret (Homo sapiens) (UniProt P07949); test: Inhibition of Ret at 100 uM
[18] = biological target: Mast/stem cell growth factor receptor Kit (Homo sapiens) (UniProt P10721); test: Inhibition of c-kit at 100 uM
[19] = biological target: Glycogen synthase kinase-3 beta (Homo sapiens) (UniProt P49841); test: Inhibition of GSK3-beta at 100 uM
[20] = biological target: Receptor-type tyrosine-protein kinase FLT3 (Homo sapiens) (UniProt P36888); test: Inhibition of Flt3 at 100 uM
[21] = biological target: Vascular endothelial growth factor receptor 3 (Homo sapiens) (UniProt P35916); test: Inhibition of VEGFR3 at 100 uM
[22] = biological target: Serine/threonine-protein kinase Chk1 (Homo sapiens) (UniProt O14757); test: Inhibition of CHK1 at 100 uM
[23] = biological target: Platelet-derived growth factor receptor alpha (Homo sapiens) (UniProt P16234); test: Inhibition of PDGFRalpha at 100 uM
[24] = biological target: Dual specificity mitogen-activated protein kinase kinase 1 (Homo sapiens) (UniProt Q02750); test: Inhibition of MEK1 at 100 uM
[25] = Bioavailability in rat; format: ADME, organism-based; details: in vivo
[26] = biological target: Vascular endothelial growth factor receptor 1 (Homo sapiens) (UniProt P17948); test: Inhibition of VEGFR1 at 100 uM
[27] = system: HOS-TE85; test: Antitumor activity against human MNNG-HOS cell xenografted mouse assessed as tumor regression at 40 mg/kg, po after 12 days; format: functional, organism-based; design: dose 40 mg/kg
[28] = biological target: Macrophage-stimulating protein receptor (Homo sapiens) (UniProt Q04912); test: Inhibition of Ron at 100 uM
[29] = biological target: Vascular endothelial growth factor receptor 2 (Homo sapiens) (UniProt P35968); test: Inhibition of VEGFR2 at 100 uM
[30] = biological target: Cyclin-dependent kinase 2/cyclin E (Homo sapiens) (UniProt P24864+P24941+O96020); test: Inhibition of CDK2/cyclin E at 100 uM; format: protein-complex assay
[31] = biological target: Serine/threonine-protein kinase Chk2 (Homo sapiens) (UniProt O96017); test: Inhibition of CHK2 at 100 uM
[32] = system: MKN-45; test: Antiproliferative activity against human MKN45 cells after 72 hrs by MTT assay; format: functional, cell-based; details: MKN-45, 72 h
[33] = biological target: ALK tyrosine kinase receptor (Homo sapiens) (UniProt Q9UM73); test: Inhibition of ALK at 100 uM
[34] = biological target: RAF proto-oncogene serine/threonine-protein kinase (Homo sapiens) (UniProt P04049); test: Inhibition of c-Raf at 100 uM
[35] = system: HMEC; test: Antiproliferative activity against human HMEC cells after 72 hrs by MTT assay; format: functional, cell-based
[36] = system: HCT-116; test: Antiproliferative activity against human HCT116 cells after 72 hrs by MTT assay; format: functional, cell-based; details: HCT-116, 72 h
[37] = biological target: Angiopoietin-1 receptor (Homo sapiens) (UniProt Q02763); test: Inhibition of Tie-2 at 100 uM
[38] = biological target: Epidermal growth factor receptor (Homo sapiens) (UniProt P00533); test: Inhibition of EGFR at 100 uM
[39] = biological target: Platelet-derived growth factor receptor beta (Homo sapiens) (UniProt P09619); test: Inhibition of PDGFRbeta at 100 uM
[40] = system: HUVEC; test: Antiangiogenic activity against HUVEC cell assessed as inhibition of tubule formation; format: functional, cell-based; details: Homo sapiens

Chain of RAC-alpha serine/threonine-protein kinase (Homo sapiens) (P31749 whole entry): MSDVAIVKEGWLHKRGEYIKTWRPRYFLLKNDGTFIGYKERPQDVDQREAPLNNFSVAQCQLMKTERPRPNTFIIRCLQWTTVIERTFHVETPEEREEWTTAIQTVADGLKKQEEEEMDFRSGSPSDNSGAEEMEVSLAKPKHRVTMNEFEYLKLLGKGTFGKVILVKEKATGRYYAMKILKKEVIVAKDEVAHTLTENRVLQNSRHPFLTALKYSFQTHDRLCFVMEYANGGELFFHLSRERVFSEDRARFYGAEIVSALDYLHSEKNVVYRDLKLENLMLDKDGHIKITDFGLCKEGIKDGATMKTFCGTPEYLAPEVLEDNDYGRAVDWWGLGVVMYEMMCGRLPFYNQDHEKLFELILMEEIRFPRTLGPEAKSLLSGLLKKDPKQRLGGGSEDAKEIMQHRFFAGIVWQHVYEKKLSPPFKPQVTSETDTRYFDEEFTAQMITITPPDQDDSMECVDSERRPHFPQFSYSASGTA
Chain of Epidermal growth factor receptor (Homo sapiens) (P00533 whole entry): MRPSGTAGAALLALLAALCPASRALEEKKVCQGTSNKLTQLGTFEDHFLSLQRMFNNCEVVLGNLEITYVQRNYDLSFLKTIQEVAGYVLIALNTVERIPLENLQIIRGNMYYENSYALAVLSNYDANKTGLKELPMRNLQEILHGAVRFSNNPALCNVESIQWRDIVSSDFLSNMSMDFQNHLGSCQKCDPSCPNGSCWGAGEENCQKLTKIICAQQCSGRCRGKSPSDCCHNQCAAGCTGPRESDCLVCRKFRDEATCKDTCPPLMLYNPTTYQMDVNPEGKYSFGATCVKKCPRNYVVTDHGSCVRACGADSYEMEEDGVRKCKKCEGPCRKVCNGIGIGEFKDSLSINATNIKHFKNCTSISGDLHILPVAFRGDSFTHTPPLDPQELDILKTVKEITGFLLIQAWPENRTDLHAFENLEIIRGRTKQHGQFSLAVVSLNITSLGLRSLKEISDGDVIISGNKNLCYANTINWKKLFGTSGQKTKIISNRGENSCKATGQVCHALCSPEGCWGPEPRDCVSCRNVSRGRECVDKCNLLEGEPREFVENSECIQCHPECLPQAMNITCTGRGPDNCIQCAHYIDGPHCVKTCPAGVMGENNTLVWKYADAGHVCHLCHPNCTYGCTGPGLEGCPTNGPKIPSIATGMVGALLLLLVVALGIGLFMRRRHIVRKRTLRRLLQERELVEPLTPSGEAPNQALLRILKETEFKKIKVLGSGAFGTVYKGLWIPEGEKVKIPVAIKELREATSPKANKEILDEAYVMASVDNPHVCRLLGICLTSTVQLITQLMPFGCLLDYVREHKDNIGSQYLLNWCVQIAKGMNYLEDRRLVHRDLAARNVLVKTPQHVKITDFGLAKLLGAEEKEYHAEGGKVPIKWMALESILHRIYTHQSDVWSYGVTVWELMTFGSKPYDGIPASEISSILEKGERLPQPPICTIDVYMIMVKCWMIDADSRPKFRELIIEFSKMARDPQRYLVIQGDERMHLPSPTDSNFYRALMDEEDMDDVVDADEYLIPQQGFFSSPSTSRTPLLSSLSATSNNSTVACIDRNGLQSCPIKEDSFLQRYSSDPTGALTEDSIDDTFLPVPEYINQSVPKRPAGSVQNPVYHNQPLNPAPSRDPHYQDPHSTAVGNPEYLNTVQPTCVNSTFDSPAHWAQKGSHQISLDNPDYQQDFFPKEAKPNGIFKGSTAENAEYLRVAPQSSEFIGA
Chain of Aurora kinase A (Homo sapiens) (O14965 whole entry): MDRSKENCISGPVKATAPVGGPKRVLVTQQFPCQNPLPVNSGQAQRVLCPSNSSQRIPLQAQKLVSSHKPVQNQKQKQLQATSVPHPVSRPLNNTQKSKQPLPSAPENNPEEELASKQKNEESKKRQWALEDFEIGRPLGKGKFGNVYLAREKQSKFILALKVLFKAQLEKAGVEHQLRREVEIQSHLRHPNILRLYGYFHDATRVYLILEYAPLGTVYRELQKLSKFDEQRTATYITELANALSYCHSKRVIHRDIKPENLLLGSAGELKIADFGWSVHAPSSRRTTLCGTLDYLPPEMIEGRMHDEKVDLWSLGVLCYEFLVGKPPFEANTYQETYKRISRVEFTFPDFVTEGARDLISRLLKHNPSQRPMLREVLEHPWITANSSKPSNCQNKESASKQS

COc1cc2c(Oc3ccc(NC(=O)N4CCN(c5ccccc5)C4=O)cc3F)ccnc2cc1OCC1CCN(C)CC1
IC50 ([1]; read-out: IC50): 130 nM
IC50 [2]: 50 nM
IC50 [3]: 20 nM

COc1cc2ncnc(Oc3ccc(NC(=O)N4CCN(c5ccccc5)C4=O)cc3F)c2cc1OC
IC50 ([1]; read-out: IC50): > 1000 nM
IC50 [2]: 40 nM
IC50 [3]: 30 nM

COc1cc2c(Oc3ccc(NC(=O)N4CCN(c5ccccc5)C4=O)cc3F)ccnc2cc1OCCCN1CCOCC1
IC50 ([1]; read-out: IC50): 50 nM
IC50 [2]: 50 nM
IC50 [3]: 30 nM

COc1cc2nccc(Oc3ccc(NC(=O)N4CCN(c5ccccc5)C4=O)c(F)c3)c2cc1OC
IC50 ([1]; read-out: IC50): > 10000 nM
IC50 [2]: 30 nM
IC50 [3]: 50 nM

COc1cc2nccc(Oc3ccc(NC(=O)N4CCN(N5CCCCC5)C4=O)cc3F)c2cc1OC
IC50 ([1]; read-out: IC50): 640 nM
IC50 [2]: 60 nM
IC50 [3]: 370 nM

Cn1cnc(-c2cc3nccc(Oc4ccc(NC(=O)N5CCN(c6ccccc6)C5=O)cc4F)c3s2)c1
IC50 [3]: 8 nM

COc1cc2nccc(Oc3ccc(NC(=O)N4CCN(c5ccccc5OC)C4=O)cc3F)c2cc1OC
IC50 ([1]; read-out: IC50): 150 nM
IC50 [2]: 50 nM
IC50 [3]: 30 nM

COc1cc2nccc(Oc3ccc(NC(=O)N4CCN(c5ccccc5)C4=O)cn3)c2cc1OC
IC50 ([1]; read-out: IC50): 5000 nM
IC50 [2]: 60 nM
IC50 [3]: 1300 nM

COc1cc2nccc(Oc3ccc(NC(=O)N4CCN(C5CCCCC5)C4=O)cc3F)c2cc1OC
IC50 ([1]; read-out: IC50): 860 nM
IC50 [2]: 110 nM
IC50 [3]: 210 nM

COc1cc2ncnc(N(C)c3ccc(NC(=O)N4CCN(c5ccccc5)C4=O)cc3F)c2cc1OC
IC50 ([1]; read-out: IC50): > 10000 nM
IC50 [2]: 4000 nM
IC50 [3]: > 2000 nM

COc1cc2nccc(Oc3ccc(NC(=O)N4CCN(c5ccc(F)cc5)C4=O)cc3)c2cc1OC
IC50 ([1]; read-out: IC50): 150 nM
IC50 [2]: 50 nM
IC50 [3]: 30 nM

Cn1cnc(-c2cc3nccc(Oc4ccc(NC(=S)NC(=O)Cc5ccccc5)cc4F)c3s2)c1
IC50 [3]: 26 nM

COc1cc2nccc(Sc3ccc(NC(=O)N4CCN(c5ccc(F)cc5)C4=O)cc3)c2cc1OC
IC50 ([1]; read-out: IC50): 80 nM
IC50 [2]: 40 nM
IC50 [3]: 100 nM

COc1cc2nccc(Oc3ccc(NC(=S)NC(=O)Cc4ccccc4)cc3F)c2cc1OC
IC50 [3]: 32 nM

COCCOc1cc2nccc(Oc3ccc(NC(=O)N4CCN(c5ccccc5)C4=O)cc3F)c2cc1OCCOC
IC50 ([1]; read-out: IC50): 20 nM
IC50 [2]: 60 nM
IC50 [3]: 40 nM

COc1cc2nccc(Oc3ccc(NC(=O)N4CCN(c5ccccc5)C4=O)cc3F)c2cc1OC
inhibition [4]: 11%
inhibition [5]: 100%
inhibition (INH) [6]: 99.4%
inhibition [7]: 4%
inhibition [8]: 0%
inhibition [9]: 6%
inhibition [10]: 7%
IC50 ([1]; read-out: IC50): 90 nM
inhibition [11]: 0%
inhibition [12]: 0%
IC50 [13]: 2 nM
half-life [14]: 4.4 h
inhibition [15]: 94%
IC50 [16]: < 1 nM
IC50 [3]: 10 nM
inhibition [17]: 96%
inhibition [18]: 12%
inhibition [19]: 0%
inhibition [20]: 72%
inhibition [21]: 93%
inhibition [22]: 0%
inhibition [23]: 26%
inhibition [24]: 0%
bioavailability [25]: 22%
inhibition [26]: 100%
Activity [27]: Active
inhibition [28]: 92%
inhibition [29]: 92%
inhibition [30]: 0%
inhibition [31]: 1%
IC50 [32]: 8 nM
inhibition [33]: 0%
inhibition [34]: 42%
IC50 [35]: > 2500 nM
IC50 [36]: 300 nM
inhibition [37]: 23%
inhibition [38]: 0%
inhibition [39]: 6%
IC50 [40]: 8 nM

COc1cc2nccc(Oc3ccc(NC(=O)N4CCN(c5ccncc5)C4=O)cc3F)c2cc1OC
IC50 ([1]; read-out: IC50): 630 nM
IC50 [2]: 100 nM
IC50 [3]: 600 nM

COc1cc2c(Oc3ccc(NC(=O)N4CCN(c5ccccc5)C4=O)cc3F)ccnc2cc1OCC1CCNCC1
IC50 ([1]; read-out: IC50): 80 nM
IC50 [2]: 40 nM
IC50 [3]: 20 nM

COc1cc2nccc(Nc3ccc(NC(=O)N4CCN(c5ccccc5)C4=O)cc3F)c2cc1OC
IC50 [1]: Not Active
IC50 [2]: 200 nM
IC50 [3]: 1400 nM

COc1cc2nccc(Oc3ccc(NC(=O)N4CCN(c5ccccc5)C4=O)nc3)c2cc1OC
IC50 ([1]; read-out: IC50): > 10000 nM
IC50 [2]: 30 nM
IC50 [3]: 20 nM

COc1cc2nccc(Oc3ccc(NC(=O)N4CCN(c5cccc(F)c5)C4=O)cc3F)c2cc1OC
IC50 ([1]; read-out: IC50): 200 nM
IC50 [2]: 50 nM
IC50 [3]: 15 nM

COc1cc2ncnc(Nc3ccc(NC(=O)N4CCN(c5ccccc5)C4=O)cc3F)c2cc1OC
IC50 ([1]; read-out: IC50): 3300 nM
IC50 [2]: 600 nM
IC50 [3]: > 2000 nM

COc1cc2nccc(Oc3ccc(NC(=O)N4CCN(c5ccccn5)C4=O)cc3F)c2cc1OC
IC50 [1]: Not Active
IC50 [2]: 40 nM
IC50 [3]: 230 nM

COc1cc2nccc(Oc3ccc(NC(=O)N4CCN(c5ccccc5F)C4=O)cc3F)c2cc1OC
IC50 ([1]; read-out: IC50): 370 nM
IC50 [2]: 60 nM
IC50 [3]: 20 nM

COc1cc2nccc(Oc3ccc(NC(=O)N4CCN(c5ccccc5)C4=O)cc3)c2cc1OC
IC50 ([1]; read-out: IC50): 240 nM
IC50 [2]: 50 nM
IC50 [3]: 30 nM

COc1cc2nccc(Oc3ccc(NC(=O)N4CCN(c5ccc(F)cc5)C4=O)cc3F)c2cc1OC
IC50 ([1]; read-out: IC50): 90 nM
IC50 [2]: 30 nM
IC50 [3]: 20 nM

COc1cc2nccc(Oc3ccc(NC(=O)N4CCN(c5ccc(F)cc5)C4=O)cc3F)c2cc1OCCCN1CCOCC1
IC50 ([1]; read-out: IC50): 30 nM
IC50 [2]: 40 nM
IC50 [3]: 120 nM

C=CCN1CCN(C(=O)Nc2ccc(Oc3ccnc4cc(OC)c(OC)cc34)c(F)c2)C1=O
IC50 [1]: Not Active
IC50 [2]: 200 nM
IC50 [3]: 630 nM

COc1cc2nccc(N(C)c3ccc(NC(=O)N4CCN(c5ccccc5)C4=O)cc3F)c2cc1OC
IC50 [1]: Not Active
IC50 [2]: 400 nM
IC50 [3]: 5900 nM

Source: ChEMBL document CHEMBL1154652, “N-(4-(6,7-Disubstituted-quinolin-4-yloxy)-3-fluorophenyl)-2-oxo-3-phenylimidazolidine-1-carboxamides: a novel series of dual c-Met/VEGFR2 receptor tyrosine kinase inhibitors” (Bioorg Med Chem Lett, 2009)
